pKi: −log10 of the molar value.
Assays:
STAT6 protein = target: T1, STAT6 protein (Homo sapiens, UniProt P42226); assay: Fluorescence polarization (FP) binding assay, STAT6; conditions: FP competition, 5 nM fluorescein-labeled tracer, 200 nM protein, PBS pH7.4; read-out: Binding STAT6
T1 sequence (P42226 1-847): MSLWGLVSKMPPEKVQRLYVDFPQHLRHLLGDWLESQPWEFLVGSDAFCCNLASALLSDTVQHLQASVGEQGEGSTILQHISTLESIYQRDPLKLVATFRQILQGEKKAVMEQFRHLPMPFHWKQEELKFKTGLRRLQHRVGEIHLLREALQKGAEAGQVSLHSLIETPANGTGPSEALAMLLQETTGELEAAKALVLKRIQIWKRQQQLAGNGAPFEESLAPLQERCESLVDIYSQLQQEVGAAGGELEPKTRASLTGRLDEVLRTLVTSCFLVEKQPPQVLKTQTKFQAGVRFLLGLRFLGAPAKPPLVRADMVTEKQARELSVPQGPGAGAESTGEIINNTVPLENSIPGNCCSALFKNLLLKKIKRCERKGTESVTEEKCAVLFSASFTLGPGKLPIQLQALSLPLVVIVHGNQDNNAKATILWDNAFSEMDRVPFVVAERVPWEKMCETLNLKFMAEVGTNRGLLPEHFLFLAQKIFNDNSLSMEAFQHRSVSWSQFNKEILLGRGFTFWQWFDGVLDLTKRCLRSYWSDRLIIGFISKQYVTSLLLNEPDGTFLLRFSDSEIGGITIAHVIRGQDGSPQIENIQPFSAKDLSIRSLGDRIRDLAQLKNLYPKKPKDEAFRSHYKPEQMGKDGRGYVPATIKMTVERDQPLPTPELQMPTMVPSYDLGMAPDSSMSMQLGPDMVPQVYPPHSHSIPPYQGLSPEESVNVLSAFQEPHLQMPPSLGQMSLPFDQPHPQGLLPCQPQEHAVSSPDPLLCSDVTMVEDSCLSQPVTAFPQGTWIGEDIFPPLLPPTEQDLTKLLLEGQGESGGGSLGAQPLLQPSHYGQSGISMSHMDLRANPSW
How it was run: (§1)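 Each well holds 200 nM STAT5 and/or STAT6 with 5 nM fluorescent tracer in PBS pH 7.4 (0.01% BGG, 0.01% Tween-20, 2 mM DTT). Binding reaches equilibrium over 1 h at room temperature after brief shaking, and polarization data are fitted nonlinearly.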

STAT5A = target: T2, STAT5A (Homo sapiens, UniProt P42229); assay: Fluorescence polarization (FP) binding assay, STAT5A; conditions: FP competition, 5 nM fluorescein-labeled tracer, 200 nM protein, PBS pH7.4
T2 sequence (P42229 1-794): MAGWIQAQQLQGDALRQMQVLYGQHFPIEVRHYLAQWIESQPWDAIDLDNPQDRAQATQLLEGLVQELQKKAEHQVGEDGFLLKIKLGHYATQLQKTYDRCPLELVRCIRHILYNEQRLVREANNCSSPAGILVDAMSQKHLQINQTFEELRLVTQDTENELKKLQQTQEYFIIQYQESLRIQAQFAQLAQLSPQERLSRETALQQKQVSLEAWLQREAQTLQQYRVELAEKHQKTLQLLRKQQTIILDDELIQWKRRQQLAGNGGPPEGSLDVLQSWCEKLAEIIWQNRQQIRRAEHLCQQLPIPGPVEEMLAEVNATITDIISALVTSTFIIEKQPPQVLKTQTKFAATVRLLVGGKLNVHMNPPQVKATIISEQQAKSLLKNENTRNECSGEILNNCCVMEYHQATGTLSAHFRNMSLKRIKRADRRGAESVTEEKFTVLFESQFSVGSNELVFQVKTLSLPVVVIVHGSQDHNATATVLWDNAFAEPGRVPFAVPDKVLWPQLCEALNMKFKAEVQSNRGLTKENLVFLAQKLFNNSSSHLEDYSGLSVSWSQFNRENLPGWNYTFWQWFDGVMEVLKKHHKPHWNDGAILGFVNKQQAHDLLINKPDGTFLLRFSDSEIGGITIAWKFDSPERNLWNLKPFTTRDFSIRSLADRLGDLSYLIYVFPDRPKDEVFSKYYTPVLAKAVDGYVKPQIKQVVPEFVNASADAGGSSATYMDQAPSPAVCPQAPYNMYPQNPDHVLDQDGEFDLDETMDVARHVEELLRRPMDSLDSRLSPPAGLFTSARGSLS
How it was run: as §1

SMILES	pKi (STAT6 protein)	pKi (STAT5A)
CC(=O)N1C[C@H]2CCN(C(=O)[C@@H]3CCCN3C(=O)[C@@H](NC(=O)c3cc4cc(C(F)(F)P(=O)(O)O)ccc4s3)C(C)(C)C)[C@H]2C1 [Compound 84, ((2-(((S)-1-((S)-2-((3aR,6aR)-5-acetyloctahydropyrrolo[3,4-b]pyrrole-1-carbonyl)pyrrolidin-1-yl)-3,3-dimethyl-1-oxobutan-2-yl)carbamoyl)benzo[b]thiophen-5-yl)difluoromethyl)phosphonic acid]	< 5.00	< 5.00
CCCCC(=O)N1C[C@H]2CCN(C(=O)[C@@H]3CCCN3C(=O)[C@@H](NC(=O)c3cc4cc(C(F)(F)P(=O)(O)O)ccc4s3)C(C)(C)C)[C@H]2C1 [Compound 85, ((2-(((S)-3,3-dimethyl-1-oxo-1-((S)-2-((3aR,6aR)-5-pentanoyloctahydropyrrolo[3,4-b]pyrrole-1-carbonyl)pyrrolidin-1-yl)butan-2-yl)carbamoyl)benzo[b]thiophen-5-yl)difluoromethyl)phosphonic acid]	< 5.00	< 5.00
CC(C)(C)[C@H](NC(=O)c1cc2cc(C(F)(F)P(=O)(O)O)ccc2s1)C(=O)N1CCC[C@H]1C(=O)N1CC[C@@H]2CN(C(=O)c3ccc(F)cc3)C[C@@H]21 [Compound 86, (difluoro(2-(((S)-1-((S)-2-((3aR,6aR)-5-(4-fluorobenzoyl)octahydropyrrolo[3,4-b]pyrrole-1-carbonyl)pyrrolidin-1-yl)-3,3-dimethyl-1-oxobutan-2-yl)carbamoyl)benzo[b]thiophen-5-yl)methyl)phosphonic acid]	< 5.00	< 5.00
CC(=O)N1CC[C@@H]2CN(C(=O)[C@@H]3CCCN3C(=O)[C@@H](NC(=O)c3cc4cc(C(F)(F)P(=O)(O)O)ccc4s3)C(C)(C)C)C[C@@H]21 [Compound 87, ((2-(((S)-1-((S)-2-((3aR,6aR)-1-acetyloctahydropyrrolo[3,4-b]pyrrole-5-carbonyl)pyrrolidin-1-yl)-3,3-dimethyl-1-oxobutan-2-yl)carbamoyl)benzo[b]thiophen-5-yl)difluoromethyl)phosphonic acid]	< 5.00	< 5.00
CCCCC(=O)N1CC[C@@H]2CN(C(=O)[C@@H]3CCCN3C(=O)[C@@H](NC(=O)c3cc4cc(C(F)(F)P(=O)(O)O)ccc4s3)C(C)(C)C)C[C@@H]21 [Compound 88, ((2-(((S)-3,3-dimethyl-1-oxo-1-((S)-2-((3aR,6aR)-1-pentanoyloctahydropyrrolo[3,4-b]pyrrole-5-carbonyl)pyrrolidin-1-yl)butan-2-yl)carbamoyl)benzo[b]thiophen-5-yl)difluoromethyl)phosphonic acid]	< 5.00	< 5.00
CC(C)(C)[C@H](NC(=O)c1cc2cc(C(F)(F)P(=O)(O)O)ccc2s1)C(=O)N1CCC[C@H]1C(=O)N1C[C@H]2CCN(C(=O)c3ccc(F)cc3)[C@H]2C1 [Compound 89, (difluoro(2-(((S)-1-((S)-2-((3aR,6aR)-1-(4-fluorobenzoyl)octahydropyrrolo[3,4-b]pyrrole-5-carbonyl)pyrrolidin-1-yl)-3,3-dimethyl-1-oxobutan-2-yl)carbamoyl)benzo[b]thiophen-5-yl)methyl)phosphonic acid]	< 5.00	< 5.00
CC(=O)N1CC[C@H]2CCN(C(=O)[C@@H]3CCCN3C(=O)[C@@H](NC(=O)c3cc4cc(C(F)(F)P(=O)(O)O)ccc4s3)C(C)(C)C)[C@H]2C1 [Compound 90, ((2-(((S)-1-((S)-2-((3aS,7aR)-6-acetyloctahydro-1H-pyrrolo[2,3-c]pyridine-1-carbonyl)pyrrolidin-1-yl)-3,3-dimethyl-1-oxobutan-2-yl)carbamoyl)benzo[b]thiophen-5-yl)difluoromethyl)phosphonic acid]	< 5.00	< 5.00
CCCCC(=O)N1CC[C@H]2CCN(C(=O)[C@@H]3CCCN3C(=O)[C@@H](NC(=O)c3cc4cc(C(F)(F)P(=O)(O)O)ccc4s3)C(C)(C)C)[C@H]2C1 [Compound 91, ((2-(((S)-3,3-dimethyl-1-oxo-1-((S)-2-((3aS,7aR)-6-pentanoyloctahydro-1H-pyrrolo[2,3-c]pyridine-1-carbonyl)pyrrolidin-1-yl)butan-2-yl)carbamoyl)benzo[b]thiophen-5-yl)difluoromethyl)phosphonic acid]	< 5.00	< 5.00
CC(=O)N1C[C@@H]2CCN(C(=O)[C@@H]3CCCN3C(=O)[C@@H](NC(=O)c3cc4cc(C(F)(F)P(=O)(O)O)ccc4s3)C(C)(C)C)[C@@H]2C1 [Compound 92, ((2-(((S)-1-((S)-2-((3aS,6aS)-5-acetyloctahydropyrrolo[3,4-b]pyrrole-1-carbonyl)pyrrolidin-1-yl)-3,3-dimethyl-1-oxobutan-2-yl)carbamoyl)benzo[b]thiophen-5-yl)difluoromethyl)phosphonic acid]	< 5.00	< 5.00
CCCCC(=O)N1C[C@@H]2CCN(C(=O)[C@@H]3CCCN3C(=O)[C@@H](NC(=O)c3cc4cc(C(F)(F)P(=O)(O)O)ccc4s3)C(C)(C)C)[C@@H]2C1 [Compound 93, ((2-(((S)-3,3-dimethyl-1-oxo-1-((S)-2-((3aS,6aS)-5-pentanoyloctahydropyrrolo[3,4-b]pyrrole-1-carbonyl)pyrrolidin-1-yl)butan-2-yl)carbamoyl)benzo[b]thiophen-5-yl)difluoromethyl)phosphonic acid]	< 5.00	< 5.00
CC(C)(C)[C@H](NC(=O)c1cc2cc(C(F)(F)P(=O)(O)O)ccc2s1)C(=O)N1CCC[C@H]1C(=O)N1CC[C@H]2CN(C(=O)c3ccc(F)cc3)C[C@H]21 [Compound 94, (difluoro(2-(((S)-1-((S)-2-((3aS,6aS)-5-(4-fluorobenzoyl)octahydropyrrolo[3,4-b]pyrrole-1-carbonyl)pyrrolidin-1-yl)-3,3-dimethyl-1-oxobutan-2-yl)carbamoyl)benzo[b]thiophen-5-yl)methyl)phosphonic acid]	< 5.00	< 5.00
CC(=O)N1CC[C@H]2CN(C(=O)[C@@H]3CCCN3C(=O)[C@@H](NC(=O)c3cc4cc(C(F)(F)P(=O)(O)O)ccc4s3)C(C)(C)C)C[C@H]21 [Compound 95, ((2-(((S)-1-((S)-2-((3aS,6aS)-1-acetyloctahydropyrrolo[3,4-b]pyrrole-5-carbonyl)pyrrolidin-1-yl)-3,3-dimethyl-1-oxobutan-2-yl)carbamoyl)benzo[b]thiophen-5-yl)difluoromethyl)phosphonic acid]	< 5.00	< 5.00
CCCCC(=O)N1CC[C@H]2CN(C(=O)[C@@H]3CCCN3C(=O)[C@@H](NC(=O)c3cc4cc(C(F)(F)P(=O)(O)O)ccc4s3)C(C)(C)C)C[C@H]21 [Compound 96, ((2-(((S)-3,3-dimethyl-1-oxo-1-((S)-2-((3aS,6aS)-1-pentanoyloctahydropyrrolo[3,4-b]pyrrole-5-carbonyl)pyrrolidin-1-yl)butan-2-yl)carbamoyl)benzo[b]thiophen-5-yl)difluoromethyl)phosphonic acid]	< 5.00	< 5.00

From US20230295200A1 (REGENTS OF THE UNIVERSITY OF MICHIGAN, priority 2022, published 2023)
